PMC12261321, “Inhibitors of the Bacterioferritin Ferredoxin Complex Dysregulate Iron Homeostasis and Kill and Biofilm-Embedded Cells” (ACS Infectious Diseases, 2025)
“Also recorded” adds a separate entry of the source.

Key:
Format in all cases: cell-based
A. baumannii 5075 [1] = assay: Siderophores secreted by A. baumannii (CAS assay); conditions: 5075, 20 h, M63 without citrate; compounds 40 μM, SB-17–140 80 μM
Method: Unlike pyoverdine, the siderophores secreted by are not fluorescent. Consequently, to measure siderophore secretion from planktonic cultures of , we decided to utilize the Chrome azurol S (CAS) assay, a well-known universal colorimetric method used to detect siderophores. , To this end, planktonic cells of 5075 were cultured for 20 h in the presence of sub-MICs of a representative number of inhibitors in M63 media not containing citrate, followed by analysis of the cell-free spent media by the CAS assay. […] These observations support the hypothesis that active compounds engage their target (Ab Bfr) and block the Ab Bfr–Bfd complex in , trapping iron in Ab Bfr and causing intracellular iron limitation, which in turn elicits a siderophore overproduction phenotype. […]
reported13 with some modifications. Cells were cultured in modified M63 media (2 g / L ( N H 4)2SO4, 13.6 g/L KH2PO4 (Sigma Aldrich), 2 g/L glucose, 4 g/L cit ric acid, 5 g/ L technical grade casamino acids (B D scientific), 0.24 g/L MgSO4 (Alfa A esar), and 0.025% (w/v) HPMC, pH 7.0 adjusted with KOH) . […]
Determination of Siderophores Secreted by A. baumannii . The chromo azurol S (CAS) solution was prepared as previously reported18 with some modifications. The blue dye solution (0.6 g/L CAS ( ACROS Organics), 100 μM FeCl3·6H2O, and 0.73 g/L hexadecyltrimethylammonium bromide (HDTMA, ACROS Organics) was autoclaved and stored in the dark. The MM9-PIPES buffer solution (3 g/L KH2PO4, 5 g/L NaCl, 10 g/L NH4C l, 32.24 g/L piperazine -1,4-bis-2- ethanesulfonic acid (PIPES , Sigma Aldrich), pH 6.75) was sterilized using a 0.22 µm syringe filter (VWR). Prior to every experimen t, blue dye solution (0.5 mL) was mixed with 4.5 mL of MM9-PIPES solution. An overnight culture of A. baumannii 5075 was diluted to OD600 = 0.0001 with modified M63 media (no citric acid) supplemented with 4 μ M Fe and transferred to a 96-well plate, wh ere it was cul tured for 20 […]
h at 35 °C and 205 cpm i n a plate reader (Synergy H1, BioTek). The treated cell cultures contained compound at the concentrations indicat ed in the caption of Figure 8B and […], whereas the untreated control contained 0.1% DMSO. 700 μ L was centrifuged at 16,200 x g for 10 min. 200 μ L of the clarified supern atant was mixed with the 200 μL of CAS solution and allowed to incubate at room temperatu re in the dark for 2 h prior to recording a UV-Vis spectrum (200 nm to 800 nm) in a 1.0 cm quartz cuvette with the aid of a Cary 60 UV-Vi s spectrophotometer (Agilent Technologies). The fold- change in siderophore secreted by the treated vs. untreated cells was calculated using equation S3, where Tr indicates treated cells, Un indicates DMSO control cells, […]
solution of fresh modified M63 media. The experiment was carried out in at least five biological replicates for […]
FFggFFFF cch aammggaa =(ΔΔAA 630 )UUii (S3)
Measurement of Dissociation Constant (Kd) R ecombinant Pa BfrB was expressed in E. coli and purified as previously reported.19 Apo-BfrB (devoid of heme) was utilized for the measurements to prevent heme-driven fluorescence quenching. A 0.5 mL solution contai ning 0.01 µM apo Pa-BfrB in PBS (pH = 7.4) containing0.5% DMSO was plac ed into a 1 cm quartz cuvette wh ere it was titrated with aliq uots of compound dissolved in a 50% (v/v) PBS/DMSO solution. The fluorescence quenching brought by the addition of each aliquot was monitored with the aid of an Agilent Cary Fluorometer , with excitation at 280 nm, emission at 320- 470 nm, 10 x10 nm slit width, and an average of 5 scans per spectrum. Th e binding assay included at least 8 aliquots spanning from ~ 0.1 […]
A control titration was carried out by titrati ng compound into PBS buffer. The Kd was cal culated by fitting the data to equation S4, w here Fb is the fraction bound and Fmax is the fraction bound at saturating compound concentration.
FFbb = FFmmmmmm ? [ccccmmccccccmmcc ]? (S4) […]

P. aeruginosa PAO1 = assay: Pyoverdin secreted by P. aeruginosa PAO1 (fluorescence); conditions: planktonic cells, 24 h; KM-5–25 80 μM, KM-5–35 60 μM, EB-5–73 40 μM, SB-17–140 80 μM
Method: Dete rmination of pyoverdin secreted by P. aeruginosa PA O 1 . These experiments were conducted as previously reported13 with some modifications. Cells were cultured in modified M63 media (2 g / L ( N H 4)2SO4, 13.6 g/L KH2PO4 (Sigma Aldrich), 2 g/L glucose, 4 g/L cit ric acid, 5 g/ L technical grade casamino acids (B D scientific), 0.24 g/L MgSO4 (Alfa A esar), and 0.025% (w/v) HPMC, pH 7.0 adjusted with KOH) . Starter cultures in LB were diluted to OD600 = 0.0001 and cultured in a sh aker i ncubator (35 °C and 205 rpm) for 24 h, in the absen ce ( control) and in the presence of KM -5- 25 (80 μM), KM-5- 35 (60 μM), EB- 5- 73 (40 μM), and SB-17- 140 (80 μM); al l cell suspensions have 1.5% DMSO. 700 μ L of the culture wer e clarified by centrifugation (16,200 x g, 10 min, 4 °C), diluted 10-fold in PBS and then analyzed by acquiring fluorescence emission spectra (410- 600 nm) with excitation at 400 nm (10 nm slit width) and emission at λ max= 430 nm (10 nm slit width) using an Ag ilent (Cary Eclipse) fluorescen ce sp ectrophotometer. The flu orescen ce intensity of th e treated sample (FI)Tr and that of the untreated control (FI)Un was normalized to the corresponding OD600 and the ratio (FI/OD600)Tr / (F I/ OD600)Un is […]
The determination for each of the compounds was carri ed out in 5 biological replicates. […]

A. baumannii 5075 [2] = assay: Compound intracellular accumulation in A. baumannii 5075; conditions: ‡ treatment with 15 µM compound

| Compound | siderophore secretion, ΔA 630 nm normalized to OD600 (A. baumannii 5075 [1]) | pyoverdine secretion, (FI/OD600)Tr/(FI/OD600)Un (P. aeruginosa PAO1) | Intracell. Accum, A. baumannii 5075 (A. baumannii 5075 [2]) [nmol/1012 CFU] |
| --- | --- | --- | --- |
| O=C1NC(=O)c2c(NCc3ccc(Br)cc3O)cccc21 [EB-5-61] | secrete significantly higher levels of siderophore |  |  |
| O=C1NC(=O)c2c(NCc3cccc(Br)c3O)cccc21 [EB-5-73] | do not elicit a siderophore overproduction phenotype | did not secrete more pyoverdine than the untreated control cultures; also recorded: secrete the same amount of pyoverdine as the untreated control |  |
| O=C1NC(=O)c2c(NCc3cc(Cl)ccc3O)cccc21 [KM-5-25, 4-((5-Chloro-2-hydroxybenzyl)amino)isoindoline-1,3-dione] | secrete significantly higher levels of siderophore | overproduction of pyoverdine; also recorded: pyoverdine overproduction phenotype |  |
| O=C1NC(=O)c2c(NCc3c(O)cccc3Cl)cccc21 [KM-5-29] | secrete significantly higher levels of siderophore |  |  |
| O=C1NC(=O)c2c(NCc3cc(Br)ccc3O)cccc21 [KM-5-35, 4-((5-Bromo-2-hydroxybenzyl)amino)isoindoline-1,3-dione] | secrete significantly higher levels of siderophore | overproduction of pyoverdine; also recorded: pyoverdine overproduction phenotype |  |
| O=C1NC(=O)c2c(NCc3cc(Cl)ccc3O)ccc(Br)c21 [SB-16-51] |  |  | 2137 ± 311 |
| CC(C)(C)c1ccc(O)c(CNc2cccc3c2C(=O)NC3=O)c1 [SB-16-53] |  |  | 327 ± 17 |
| Cc1cc(Br)cc(CNc2cccc3c2C(=O)NC3=O)c1O [SB-16-106] |  |  | 782 ± 11 |
| O=C1NC(=O)c2c(NCc3cc(Br)ccc3O)ccc(Cl)c21 [SB-16-124] |  |  | 2626 ± 389 |
| Cc1cc(Cl)cc(CNc2cccc3c2C(=O)NC3=O)c1O [SB-16-156] |  |  | 671 ± 89 |
| O=C1NC(=O)c2c(NCc3cccc4c3CCN4)cccc21 [SB-17-140] | do not elicit a siderophore overproduction phenotype | did not secrete more pyoverdine than the untreated control cultures; also recorded: secrete the same amount of pyoverdine as the untreated control |  |
